# pIC50: −log10 of the molar value. Like-named read-outs stand apart in the source and are kept apart here.
# Key:
# [1] = target: T1, human NaV1.4 (Homo sapiens, UniProt P35499); experiment: PatchXpress (PX) automated electrophysiology, human NaV1.4; assay type: cell-based; conditions: PX platform IC50 ratio
# Procedure: Human NaV (hNaV) stably transfected cell lines in HEK293 or CHO backgrounds and cell culture methods were as previously described. hNaV1.1-hNaV1.7 cells were obtained from Eurofins Pharma Discovery Services (St. Charles, MO), and hNaV1.8 cells were generated in house. Whole cell patch clamp, PatchXpress, and IWQ electrophysiology voltage protocols as well as DRG neuron isolation were carried out as previously described. NaV1.7-NaV1.5 chimeras were generated and evaluated in BacMam transduced U2-OS cells on the IWQ platform as previously described.
# [2] = target: human NaV1.5 (Homo sapiens, UniProt Q14524); experiment: IonWorks Quattro (IWQ) electrophysiology, human NaV1.5; assay type: cell-based
# Sequence of human NaV1.5 (Q14524 whole entry): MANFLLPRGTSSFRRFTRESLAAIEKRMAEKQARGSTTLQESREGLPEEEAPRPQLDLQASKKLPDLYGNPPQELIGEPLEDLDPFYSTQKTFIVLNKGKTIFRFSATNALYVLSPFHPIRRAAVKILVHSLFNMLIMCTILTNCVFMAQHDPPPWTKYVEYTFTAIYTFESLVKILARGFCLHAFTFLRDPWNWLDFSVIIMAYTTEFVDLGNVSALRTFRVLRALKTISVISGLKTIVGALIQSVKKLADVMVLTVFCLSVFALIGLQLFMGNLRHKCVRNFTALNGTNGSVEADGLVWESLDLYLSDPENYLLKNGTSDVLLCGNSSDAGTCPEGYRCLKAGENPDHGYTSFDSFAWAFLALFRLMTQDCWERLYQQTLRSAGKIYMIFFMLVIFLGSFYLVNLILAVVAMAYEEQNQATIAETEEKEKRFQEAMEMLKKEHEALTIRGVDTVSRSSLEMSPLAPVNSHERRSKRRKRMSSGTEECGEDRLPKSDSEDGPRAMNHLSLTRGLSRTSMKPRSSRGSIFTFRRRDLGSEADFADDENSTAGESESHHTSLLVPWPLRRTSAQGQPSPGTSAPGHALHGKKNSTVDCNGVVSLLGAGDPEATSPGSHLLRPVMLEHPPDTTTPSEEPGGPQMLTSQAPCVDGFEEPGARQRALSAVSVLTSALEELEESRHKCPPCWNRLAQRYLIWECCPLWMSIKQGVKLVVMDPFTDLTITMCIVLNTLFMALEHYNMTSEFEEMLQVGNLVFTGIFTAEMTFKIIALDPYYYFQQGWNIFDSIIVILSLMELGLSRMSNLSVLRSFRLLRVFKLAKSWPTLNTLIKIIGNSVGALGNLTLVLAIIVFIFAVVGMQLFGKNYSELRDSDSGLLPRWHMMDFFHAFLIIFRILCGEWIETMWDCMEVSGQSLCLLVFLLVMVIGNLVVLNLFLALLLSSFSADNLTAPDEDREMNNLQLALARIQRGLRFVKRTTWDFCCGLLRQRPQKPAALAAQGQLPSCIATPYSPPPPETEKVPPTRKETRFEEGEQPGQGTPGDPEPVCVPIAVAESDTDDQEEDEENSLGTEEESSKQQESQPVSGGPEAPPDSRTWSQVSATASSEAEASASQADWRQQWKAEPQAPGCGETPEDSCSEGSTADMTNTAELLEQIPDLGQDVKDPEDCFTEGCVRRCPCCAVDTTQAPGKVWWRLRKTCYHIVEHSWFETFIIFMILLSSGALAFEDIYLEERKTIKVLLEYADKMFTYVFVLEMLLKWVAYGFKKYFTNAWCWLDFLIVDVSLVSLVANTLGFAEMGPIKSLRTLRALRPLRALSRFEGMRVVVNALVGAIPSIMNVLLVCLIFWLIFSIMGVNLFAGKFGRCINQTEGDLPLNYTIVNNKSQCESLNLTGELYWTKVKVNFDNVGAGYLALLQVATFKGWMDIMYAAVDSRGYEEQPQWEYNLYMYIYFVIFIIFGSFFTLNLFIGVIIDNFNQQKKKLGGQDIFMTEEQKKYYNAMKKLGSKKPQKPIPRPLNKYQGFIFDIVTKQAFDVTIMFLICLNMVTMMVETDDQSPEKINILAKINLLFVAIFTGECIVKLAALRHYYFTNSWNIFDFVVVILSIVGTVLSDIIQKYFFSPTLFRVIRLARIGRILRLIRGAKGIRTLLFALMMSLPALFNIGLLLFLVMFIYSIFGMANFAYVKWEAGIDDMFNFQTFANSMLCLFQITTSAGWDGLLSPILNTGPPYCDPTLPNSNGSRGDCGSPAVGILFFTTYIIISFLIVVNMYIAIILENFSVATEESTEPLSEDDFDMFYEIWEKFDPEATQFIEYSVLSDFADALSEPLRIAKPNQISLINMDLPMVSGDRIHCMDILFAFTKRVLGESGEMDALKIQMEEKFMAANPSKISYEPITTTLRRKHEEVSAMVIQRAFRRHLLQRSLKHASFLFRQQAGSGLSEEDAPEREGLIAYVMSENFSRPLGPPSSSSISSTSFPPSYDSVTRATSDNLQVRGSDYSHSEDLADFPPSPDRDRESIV
# [3] = target: T2, human NaV1.7 (Homo sapiens, UniProt Q15858); experiment: IonWorks Quattro (IWQ) electrophysiology, human NaV1.7; assay type: cell-based
# [4] = target: T1, human NaV1.4; experiment: IonWorks Quattro (IWQ) electrophysiology, human NaV1.4; assay type: cell-based
# [5] = target: T2, human NaV1.7
# [6] = human, read-out: Glu mutant IWQ IC50 NaV1.5
# [7] = read-out: Glu mutant IWQ IC50 NaV1.7
# [8] = read-out: Glu mutant IWQ IC50 NaV1.4
# [9] = read-out: Ala mutant IWQ IC50 NaV1.7
# [10] = read-out: Ala mutant IWQ IC50 NaV1.5
# [11] = read-out: Ala mutant IWQ IC50 NaV1.4
# [12] = read-out: Glu mutant IWQ IC50 NaV1.5
# T1 sequence (P35499 whole entry): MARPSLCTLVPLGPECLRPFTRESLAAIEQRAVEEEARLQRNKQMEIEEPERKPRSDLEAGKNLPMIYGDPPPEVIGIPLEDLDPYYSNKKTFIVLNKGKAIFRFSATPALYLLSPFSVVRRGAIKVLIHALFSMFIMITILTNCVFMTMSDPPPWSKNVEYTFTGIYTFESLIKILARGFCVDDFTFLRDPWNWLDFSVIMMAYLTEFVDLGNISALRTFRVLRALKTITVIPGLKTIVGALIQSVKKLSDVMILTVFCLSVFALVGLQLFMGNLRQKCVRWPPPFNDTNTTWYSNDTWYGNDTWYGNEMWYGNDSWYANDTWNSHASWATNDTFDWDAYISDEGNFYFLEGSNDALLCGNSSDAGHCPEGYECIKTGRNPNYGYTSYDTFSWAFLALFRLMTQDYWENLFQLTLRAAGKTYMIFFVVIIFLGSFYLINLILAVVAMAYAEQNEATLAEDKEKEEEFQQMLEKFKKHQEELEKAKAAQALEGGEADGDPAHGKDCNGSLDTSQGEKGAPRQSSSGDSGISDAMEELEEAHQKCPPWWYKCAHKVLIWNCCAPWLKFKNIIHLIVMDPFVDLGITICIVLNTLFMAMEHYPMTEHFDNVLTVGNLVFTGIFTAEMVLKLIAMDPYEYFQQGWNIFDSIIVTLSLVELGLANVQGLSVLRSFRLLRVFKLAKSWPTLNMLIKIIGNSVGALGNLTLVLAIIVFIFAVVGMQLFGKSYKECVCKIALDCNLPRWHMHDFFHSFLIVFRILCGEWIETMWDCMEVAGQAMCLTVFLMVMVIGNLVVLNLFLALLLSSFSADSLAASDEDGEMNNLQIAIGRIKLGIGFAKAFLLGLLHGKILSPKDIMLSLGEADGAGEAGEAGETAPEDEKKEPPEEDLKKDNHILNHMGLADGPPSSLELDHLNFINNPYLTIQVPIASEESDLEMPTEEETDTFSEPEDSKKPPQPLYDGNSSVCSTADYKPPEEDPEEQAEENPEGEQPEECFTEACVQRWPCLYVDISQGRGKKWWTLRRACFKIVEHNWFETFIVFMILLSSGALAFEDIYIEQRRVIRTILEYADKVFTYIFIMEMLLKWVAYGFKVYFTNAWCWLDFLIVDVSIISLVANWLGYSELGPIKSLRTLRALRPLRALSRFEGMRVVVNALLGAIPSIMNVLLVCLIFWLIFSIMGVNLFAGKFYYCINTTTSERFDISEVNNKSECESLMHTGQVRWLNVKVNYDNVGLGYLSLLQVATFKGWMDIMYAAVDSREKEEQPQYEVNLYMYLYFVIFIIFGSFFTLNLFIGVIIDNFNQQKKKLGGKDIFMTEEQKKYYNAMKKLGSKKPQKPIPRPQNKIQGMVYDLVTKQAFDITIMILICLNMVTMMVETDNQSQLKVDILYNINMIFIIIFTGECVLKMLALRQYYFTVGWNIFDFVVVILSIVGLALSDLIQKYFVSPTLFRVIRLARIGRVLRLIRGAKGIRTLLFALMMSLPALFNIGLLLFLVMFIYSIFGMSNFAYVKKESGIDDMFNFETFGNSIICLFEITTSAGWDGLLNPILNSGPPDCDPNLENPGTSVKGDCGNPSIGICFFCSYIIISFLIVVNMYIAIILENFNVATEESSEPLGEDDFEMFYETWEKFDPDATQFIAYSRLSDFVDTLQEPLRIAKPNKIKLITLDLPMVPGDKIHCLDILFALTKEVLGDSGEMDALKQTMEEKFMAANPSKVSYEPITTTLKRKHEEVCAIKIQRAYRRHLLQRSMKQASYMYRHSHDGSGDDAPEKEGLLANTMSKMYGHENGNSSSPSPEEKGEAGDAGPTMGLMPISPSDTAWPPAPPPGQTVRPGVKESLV
compound,measurement,setting,value
"CC[C@H](C)[C@H](NC(=O)[C@H](CCC(=O)O)NC(=O)[C@H](CCCCN)NC(=O)[C@H](CCCNC(=N)N)NC(=O)[C@@H]1CSSC[C@@H]2NC(=O)[C@H](C)NC(=O)[C@H](CCCNC(=N)N)NC(=O)[C@H](CCCCN)NC(=O)[C@H](CO)NC(=O)[C@H](CC(=O)O)NC(=O)[C@@H]3CSSC[C@H](NC(=O)[C@H](CCCNC(=N)N)NC(=O)[C@H](CC(C)C)NC(=O)CNC(=O)[C@H](CCC(=O)O)NC(=O)[C@H](CSSC[C@H](NC(=O)[C@@H](N)Cc4ccc(O)cc4)C(=O)N[C@@H](CCC(N)=O)C(=O)N[C@@H](CCCCN)C(=O)N[C@@H](Cc4c[nH]c5ccccc45)C(=O)N[C@@H](CCSC)C(=O)N[C@@H](Cc4c[nH]c5ccccc45)C(=O)N[C@@H]([C@@H](C)O)C(=O)N3)NC2=O)C(=O)N[C@@H](CCCCN)C(=O)N[C@@H](CC(C)C)C(=O)N[C@@H](Cc2c[nH]c3ccccc23)C(=O)N1)C(N)=O [Peptide 1, [Glu28]JzTx-V(1–29)]",selectivity for NaV1.7 over NaV1.4,[1],500 fold
same,pIC50,[2]; [6],< 5.30
CC[C@H](C)[C@H](NC(=O)[C@@H](NC(=O)[C@H](CCCCN)NC(=O)[C@H](CCCNC(=N)N)NC(=O)[C@@H]1CSSC[C@@H]2NC(=O)[C@H](C)NC(=O)[C@H](CCCNC(=N)N)NC(=O)[C@H](CCCCN)NC(=O)[C@H](CO)NC(=O)[C@H](CC(=O)O)NC(=O)[C@@H]3CSSC[C@H](NC(=O)[C@H](CCC(=O)O)NC(=O)[C@H](CC(C)C)NC(=O)CNC(=O)[C@H](CCC(=O)O)NC(=O)[C@H](CSSC[C@H](NC(=O)[C@@H](N)Cc4ccc(O)cc4)C(=O)N[C@@H](CCC(N)=O)C(=O)N[C@@H](CCCCN)C(=O)N[C@@H](Cc4c[nH]c5ccccc45)C(=O)N[C@@H](CCSC)C(=O)N[C@@H](Cc4c[nH]c5ccccc45)C(=O)N[C@@H]([C@@H](C)O)C(=O)N3)NC2=O)C(=O)N[C@@H](CCCCN)C(=O)N[C@@H](CC(C)C)C(=O)N[C@@H](Cc2c[nH]c3ccccc23)C(=O)N1)[C@@H](C)CC)C(N)=O [R20 Glu mutant],pIC50,[3]; [7],6.66
same,pIC50,[2]; [6],< 5.30
same,pIC50,[4]; [8],5.74
CC[C@H](C)[C@H](NC(=O)[C@@H](NC(=O)[C@H](CCCCN)NC(=O)[C@H](C)NC(=O)[C@@H]1CSSC[C@@H]2NC(=O)[C@H](C)NC(=O)[C@H](CCCNC(=N)N)NC(=O)[C@H](CCCCN)NC(=O)[C@H](CO)NC(=O)[C@H](CC(=O)O)NC(=O)[C@@H]3CSSC[C@H](NC(=O)[C@H](CCCNC(=N)N)NC(=O)[C@H](CC(C)C)NC(=O)CNC(=O)[C@H](CCC(=O)O)NC(=O)[C@H](CSSC[C@H](NC(=O)[C@@H](N)Cc4ccc(O)cc4)C(=O)N[C@@H](CCC(N)=O)C(=O)N[C@@H](CCCCN)C(=O)N[C@@H](Cc4c[nH]c5ccccc45)C(=O)N[C@@H](CCSC)C(=O)N[C@@H](Cc4c[nH]c5ccccc45)C(=O)N[C@@H]([C@@H](C)O)C(=O)N3)NC2=O)C(=O)N[C@@H](CCCCN)C(=O)N[C@@H](CC(C)C)C(=O)N[C@@H](Cc2c[nH]c3ccccc23)C(=O)N1)[C@@H](C)CC)C(N)=O [R26 Ala mutant],pIC50,[3]; [9],5.62
same,pIC50,[2]; [10],< 5.00
same,pIC50,[4]; [11],< 5.00
CC[C@H](C)[C@H](NC(=O)[C@@H](NC(=O)[C@H](CCCCN)NC(=O)[C@H](CCC(=O)O)NC(=O)[C@@H]1CSSC[C@@H]2NC(=O)[C@H](C)NC(=O)[C@H](CCCNC(=N)N)NC(=O)[C@H](CCCCN)NC(=O)[C@H](CO)NC(=O)[C@H](CC(=O)O)NC(=O)[C@@H]3CSSC[C@H](NC(=O)[C@H](CCCNC(=N)N)NC(=O)[C@H](CC(C)C)NC(=O)CNC(=O)[C@H](CCC(=O)O)NC(=O)[C@H](CSSC[C@H](NC(=O)[C@@H](N)Cc4ccc(O)cc4)C(=O)N[C@@H](CCC(N)=O)C(=O)N[C@@H](CCCCN)C(=O)N[C@@H](Cc4c[nH]c5ccccc45)C(=O)N[C@@H](CCSC)C(=O)N[C@@H](Cc4c[nH]c5ccccc45)C(=O)N[C@@H]([C@@H](C)O)C(=O)N3)NC2=O)C(=O)N[C@@H](CCCCN)C(=O)N[C@@H](CC(C)C)C(=O)N[C@@H](Cc2c[nH]c3ccccc23)C(=O)N1)[C@@H](C)CC)C(N)=O [R26 Glu mutant],pIC50,[3]; [7],< 5.00
same,pIC50,[2]; [12],< 5.00
same,pIC50,[4]; [8],< 5.00
CC[C@H](C)[C@H](NC(=O)[C@@H](NC(=O)[C@H](CCCCN)NC(=O)[C@H](CCCNC(=N)N)NC(=O)[C@@H]1CSSC[C@@H]2NC(=O)[C@H](C)NC(=O)[C@H](CCCNC(=N)N)NC(=O)[C@H](CCCCN)NC(=O)[C@H](CO)NC(=O)[C@H](CC(=O)O)NC(=O)[C@@H]3CSSC[C@H](NC(=O)[C@H](CCCNC(=N)N)NC(=O)[C@H](CC(C)C)NC(=O)CNC(=O)[C@H](CCC(=O)O)NC(=O)[C@H](CSSC[C@H](NC(=O)[C@@H](N)Cc4ccc(O)cc4)C(=O)N[C@@H](CCC(N)=O)C(=O)N[C@@H](CCCCN)C(=O)N[C@@H](Cc4c[nH]c5ccccc45)C(=O)N[C@@H](CCSC)C(=O)N[C@@H](Cc4c[nH]c5ccccc45)C(=O)N[C@@H](CCC(=O)O)C(=O)N3)NC2=O)C(=O)N[C@@H](CCCCN)C(=O)N[C@@H](CC(C)C)C(=O)N[C@@H](Cc2c[nH]c3ccccc23)C(=O)N1)[C@@H](C)CC)C(N)=O [T8 Glu mutant],pIC50,[3]; [7],5.41
same,pIC50,[2]; [12],< 5.00
same,pIC50,[4]; [8],< 5.00
CC[C@H](C)[C@H](NC(=O)[C@@H](NC(=O)[C@H](CCCCN)NC(=O)[C@H](CCCNC(=N)N)NC(=O)[C@@H]1CSSC[C@@H]2NC(=O)[C@H](C)NC(=O)[C@H](CCCNC(=N)N)NC(=O)[C@H](CCCCN)NC(=O)[C@H](CO)NC(=O)[C@H](CC(=O)O)NC(=O)[C@@H]3CSSC[C@H](NC(=O)[C@H](CCCNC(=N)N)NC(=O)[C@H](CC(C)C)NC(=O)CNC(=O)[C@H](CCC(=O)O)NC(=O)[C@H](CSSC[C@H](NC(=O)[C@@H](N)Cc4ccc(O)cc4)C(=O)N[C@@H](CCC(N)=O)C(=O)N[C@@H](CCCCN)C(=O)N[C@@H](C)C(=O)N[C@@H](CCSC)C(=O)N[C@@H](Cc4c[nH]c5ccccc45)C(=O)N[C@@H]([C@@H](C)O)C(=O)N3)NC2=O)C(=O)N[C@@H](CCCCN)C(=O)N[C@@H](CC(C)C)C(=O)N[C@@H](Cc2c[nH]c3ccccc23)C(=O)N1)[C@@H](C)CC)C(N)=O [W5 Ala mutant],pIC50,[3]; [9],5.81
same,pIC50,[2]; [10],< 5.00
same,pIC50,[4]; [11],< 5.00
CC[C@H](C)[C@H](NC(=O)[C@@H](NC(=O)[C@H](CCCCN)NC(=O)[C@H](CCCNC(=N)N)NC(=O)[C@@H]1CSSC[C@@H]2NC(=O)[C@H](C)NC(=O)[C@H](CCCNC(=N)N)NC(=O)[C@H](CCCCN)NC(=O)[C@H](CO)NC(=O)[C@H](CC(=O)O)NC(=O)[C@@H]3CSSC[C@H](NC(=O)[C@H](CCCNC(=N)N)NC(=O)[C@H](CC(C)C)NC(=O)CNC(=O)[C@H](CCC(=O)O)NC(=O)[C@H](CSSC[C@H](NC(=O)[C@@H](N)Cc4ccc(O)cc4)C(=O)N[C@@H](CCC(N)=O)C(=O)N[C@@H](CCCCN)C(=O)N[C@@H](CCC(=O)O)C(=O)N[C@@H](CCSC)C(=O)N[C@@H](Cc4c[nH]c5ccccc45)C(=O)N[C@@H]([C@@H](C)O)C(=O)N3)NC2=O)C(=O)N[C@@H](CCCCN)C(=O)N[C@@H](CC(C)C)C(=O)N[C@@H](Cc2c[nH]c3ccccc23)C(=O)N1)[C@@H](C)CC)C(N)=O [W5 Glu mutant],pIC50,[3]; [7],< 5.00
same,pIC50,[2]; [12],< 5.00
same,pIC50,[4]; [8],< 5.00
CC[C@H](C)[C@H](NC(=O)[C@@H](NC(=O)[C@H](CCCCN)NC(=O)[C@H](CCCNC(=N)N)NC(=O)[C@@H]1CSSC[C@@H]2NC(=O)[C@H](C)NC(=O)[C@H](CCCNC(=N)N)NC(=O)[C@H](CCCCN)NC(=O)[C@H](CO)NC(=O)[C@H](CC(=O)O)NC(=O)[C@@H]3CSSC[C@H](NC(=O)[C@H](CCCNC(=N)N)NC(=O)[C@H](CC(C)C)NC(=O)CNC(=O)[C@H](CCC(=O)O)NC(=O)[C@H](CSSC[C@H](NC(=O)[C@@H](N)Cc4ccc(O)cc4)C(=O)N[C@@H](CCC(N)=O)C(=O)N[C@@H](CCCCN)C(=O)N[C@@H](Cc4c[nH]c5ccccc45)C(=O)N[C@@H](CCSC)C(=O)N[C@@H](Cc4c[nH]c5ccccc45)C(=O)N[C@@H]([C@@H](C)O)C(=O)N3)NC2=O)C(=O)N[C@@H](CCCCN)C(=O)N[C@@H](CC(C)C)C(=O)N[C@@H](C)C(=O)N1)[C@@H](C)CC)C(N)=O [W24 Ala mutant],pIC50,[3]; [9],< 5.00
same,pIC50,[2]; [10],< 5.00
same,pIC50,[4]; [11],< 5.00
CC[C@H](C)[C@H](NC(=O)[C@@H](NC(=O)[C@H](CCCCN)NC(=O)[C@H](CCCNC(=N)N)NC(=O)[C@@H]1CSSC[C@@H]2NC(=O)[C@H](C)NC(=O)[C@H](CCCNC(=N)N)NC(=O)[C@H](CCCCN)NC(=O)[C@H](CO)NC(=O)[C@H](CC(=O)O)NC(=O)[C@@H]3CSSC[C@H](NC(=O)[C@H](CCCNC(=N)N)NC(=O)[C@H](CC(C)C)NC(=O)CNC(=O)[C@H](CCC(=O)O)NC(=O)[C@H](CSSC[C@H](NC(=O)[C@@H](N)Cc4ccc(O)cc4)C(=O)N[C@@H](CCC(N)=O)C(=O)N[C@@H](CCCCN)C(=O)N[C@@H](Cc4c[nH]c5ccccc45)C(=O)N[C@@H](CCSC)C(=O)N[C@@H](Cc4c[nH]c5ccccc45)C(=O)N[C@@H]([C@@H](C)O)C(=O)N3)NC2=O)C(=O)N[C@@H](CCCCN)C(=O)N[C@@H](CC(C)C)C(=O)N[C@@H](CCC(=O)O)C(=O)N1)[C@@H](C)CC)C(N)=O [W24 Glu mutant],pIC50,[3]; [7],5.00
same,pIC50,[2]; [12],< 5.00
same,pIC50,[4]; [8],< 5.00
CyA-[Nle6;Pra17;Glu28]JzTx-V(1–29) (peptide),"NaV1.7 IC50 (nM), block of human NaV1.7 current, PatchXpress (PX) platform",[5],0.8 nM
Pra-[Nle6]JzTx-V(1–29) (peptide),"NaV1.7 IC50 (nM), block of human NaV1.7 current, PatchXpress (PX) platform",[5],1.2 nM
[Glu28]JzTx-V(1–29) (peptide),"NaV1.7 IC50 (nM), block of human NaV1.7 current, PatchXpress (PX) platform",[5],0.6 nM
[Nle6;Pra11;Glu28]JzTx-V(1–29) (peptide),"NaV1.7 IC50 (nM), block of human NaV1.7 current, PatchXpress (PX) platform",[5],0.5 nM
[Nle6;Pra14;Glu28]JzTx-V(1–29) (peptide),"NaV1.7 IC50 (nM), block of human NaV1.7 current, PatchXpress (PX) platform",[5],0.5 nM

# From article PMC5933747 (PLoS ONE, 2018)
